Here are results for 1 compound from patent publication US20250295618A1, “PARASYMPATHETIC NERVE ACTIVATION AGENT AND PARASYMPATHETIC NERVE ACTIVATION COMPOSITION” (MARUZEN PHARMACEUTICALS CO., LTD., priority 2022, published 2025).

Format in all cases: in vivo, male Whistar rats
In test [1] the test system is parasympathetic nerve (vagus nerve) innervating the pancreas. The experiment in a line: Test Example 1: neural activity of distal branches of vagus (parasympathetic) nerve for the pancreas (PVNA) after intragastric administration. The following applies: urethane-anesthetized rats, measured for 60 minutes, percentage of value at 0 minutes (100%), FIG. 2. On the procedure: (§1) The effect of the intragastric administration of the compound represented by Structural Formula (1) on the activity of the parasympathetic nerve innervating the stomach, the pancreas, or the intestine was tested in the following manner. For the experiment, male Whistar rats (approximately 9 weeks old) each having a body weight of approximately 300 g were kept in a 24° C. thermostatic animal room for 1 week or longer with a 12-hour light-dark cycle (lighting from 8:00 to 20:00). On the day of the experiment, the rats were fasted for 3 hours, followed by anesthetizing with urethane. A cannula for intragastric administration was inserted into each of the rats, and then distal branches of the parasympathetic nerve (vagus nerve) innervating the stomach, the pancreas, or the intestines (small intestine and large intestine) were lifted with a silver electrode, and the electrical activity thereof was measured. […] In addition, as a control, water serving as a solvent was intragastrically administered using the cannula at a dose of 0.5 mL/300 g of body weight, and the change in the neural activity of the distal branches of the above parasympathetic nerves was measured electrophysiologically for 60 minutes. […]

Test [2] deals with parasympathetic nerve (vagus nerve) innervating the intestines (small intestine and large intestine). The experiment in a line: Test Example 1: neural activity of distal branches of vagus (parasympathetic) nerve for the intestine (IVNA) after intragastric administration. The note with it: urethane-anesthetized rats, measured for 60 minutes, percentage of value at 0 minutes (100%), FIG. 3. The protocol:
as §1

For test [3], the system named is parasympathetic nerve (vagus nerve) innervating the stomach. The test is described as follows: Test Example 1: neural activity of distal branches of vagus (parasympathetic) nerve for the stomach (GVNA) after intragastric administration. The following applies: urethane-anesthetized rats; intragastric 0.015 mg/0.5 mL/300 g of body weight; measured for 60 minutes; percentage of value at 0 minutes (100%); FIG. 1. On the procedure: as §1

Setting [4] is: intragastric 0.00015 mg/0.5 mL/300 g of body weight.
Where [5] appears, read: intragastric 0.0015 mg/0.5 mL/300 g of body weight.

As for `COc1cc(CCC(=O)O)ccc1O` [3-(4-hydroxy-3-methoxyphenyl)propionic acid], the “pancreatic vagal nerve activity (PVNA) value compared with the water group” value in test [1] (setting [4]) and in test [1] (setting [5]) was “PVNA value higher than the PVNA value of the group to which water serving as the solvent was administered” throughout. In addition, the “intestinal vagal nerve activity (IVNA) value compared with the water group” value in test [2] (setting [4]) and in test [2] (setting [5]) was “IVNA values higher than the IVNA value of the group to which water serving as the solvent was administered” each time. Moreover, the “gastric vagal nerve activity (GVNA) value compared with the water group” value in test [3] was “GVNA value higher than the GVNA value of the group to which water serving as the solvent was administered”.
